Test results taken from the supplement of paper PMC10307832.

Key:
Experiment in all cases: relative viability (nuclei count vs DMSO), 5 days (fraction); higher = more cells survive
CX-5461 + Navitoclax = compound: Cc1cnc(CNC(=O)c2c(=O)c3ccc(N4CCCN(C)CC4)nc3n3c2sc2ccccc23)cn1 [CX-5461] + CC1(C)CCC(c2ccc(Cl)cc2)=C(CN2CCN(c3ccc(C(=O)NS(=O)(=O)c4ccc(N[C@H](CCN5CCOCC5)CSc5ccccc5)c(S(=O)(=O)C(F)(F)F)c4)cc3)CC2)C1 [Navitoclax] (partner 0.5 µM)
How it was run: (§1)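 One day after seeding in 1536-well plates, lung cancer cell lines were dosed by pin tool. Dosing was either single-drug or a fixed anchor-drug dose plus five library-drug doses (not always all listed) in √10 steps. After 5 days, nuclei were stained in one fix-and-stain step and counted on 4× images, and relative viability is the nuclei count of treated wells over that of vehicle wells, given as the median of duplicate plates.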

CX-5461 + Phenformin = compound: Cc1cnc(CNC(=O)c2c(=O)c3ccc(N4CCCN(C)CC4)nc3n3c2sc2ccccc23)cn1 [CX-5461] + N=C(N)NC(=N)NCCc1ccccc1 [Phenformin] (partner 250 µM)
How it was run: as §1

IMD-0354 + Luminespib = compound: O=C(Nc1cc(C(F)(F)F)cc(C(F)(F)F)c1)c1cc(Cl)ccc1O [IMD-0354] + CCNC(=O)c1noc(-c2cc(C(C)C)c(O)cc2O)c1-c1ccc(CN2CCOCC2)cc1 [Luminespib] (partner 0.01 µM)
How it was run: as §1

IMD-0354 + Alpelisib = compound: O=C(Nc1cc(C(F)(F)F)cc(C(F)(F)F)c1)c1cc(Cl)ccc1O [IMD-0354] + Cc1nc(NC(=O)N2CCC[C@H]2C(N)=O)sc1-c1ccnc(C(C)(C)C(F)(F)F)c1 [Alpelisib] (partner 2 µM)
How it was run: as §1

| Cell Line | relative viability (CX-5461 + Navitoclax; first compound 0.01 µM) | relative viability (CX-5461 + Navitoclax; first compound 0.03162 µM) | relative viability (CX-5461 + Navitoclax; first compound 0.1 µM) | relative viability (CX-5461 + Navitoclax; first compound 0.3162 µM) | relative viability (CX-5461 + Navitoclax; first compound 1 µM) | relative viability (CX-5461 + Phenformin; first compound 0.01 µM) | relative viability (CX-5461 + Phenformin; first compound 0.03162 µM) | relative viability (CX-5461 + Phenformin; first compound 0.1 µM) | relative viability (CX-5461 + Phenformin; first compound 0.3162 µM) | relative viability (CX-5461 + Phenformin; first compound 1 µM) | relative viability (IMD-0354 + Luminespib; first compound 0.04 µM) | relative viability (IMD-0354 + Luminespib; first compound 0.1265 µM) | relative viability (IMD-0354 + Luminespib; first compound 0.4 µM) | relative viability (IMD-0354 + Luminespib; first compound 1.265 µM) | relative viability (IMD-0354 + Luminespib; first compound 4 µM) | relative viability (IMD-0354 + Alpelisib; first compound 0.04 µM) | relative viability (IMD-0354 + Alpelisib; first compound 0.1265 µM) | relative viability (IMD-0354 + Alpelisib; first compound 0.4 µM) | relative viability (IMD-0354 + Alpelisib; first compound 1.265 µM) | relative viability (IMD-0354 + Alpelisib; first compound 4 µM) |
| --- | --- | --- | --- | --- | --- | --- | --- | --- | --- | --- | --- | --- | --- | --- | --- | --- | --- | --- | --- | --- |
| LXF-289 | 0.94 | 0.985 | 0.995 | 0.875 | 0.957 | 0.523 | 0.526 | 0.521 | 0.255 | 0.276 | 0.796 | 0.66 | 0.564 | 0.508 | 0.192 | 1.09 | 1.06 | 0.711 | 0.265 | 0.0502 |
| NCI-H23 | 0.958 | 0.859 | 0.986 | 0.839 | 0.726 | 0.769 | 0.875 | 0.834 | 0.803 | 0.406 | 0.299 | 0.212 | 0.247 | 0.178 | 0.145 | 0.802 | 0.695 | 0.412 | 0.435 | 0.243 |
| NCI-H322M | 1.34 | 1.31 | 1.12 |  | 1.17 | 0.821 | 0.945 | 0.818 | 0.473 | 0.521 | 0.94 | 0.895 | 0.618 | 0.317 | 0.355 | 0.717 | 0.607 | 0.695 | 0.834 | 0.475 |
| NCI-H441 | 0.514 | 0.821 | 0.57 | 0.703 | 0.583 | 0.758 | 1.05 | 0.779 | 0.86 | 0.305 | 0.279 | 0.409 | 0.234 | 0.214 | 0.2 |  | 0.78 | 0.398 | 0.285 | 0.217 |
| NCI-H460 | 1.04 | 1.02 | 0.273 | 1.09 | 0.0167 | 0.545 | 0.483 |  | 0.483 | 0.0194 | 0.0305 | 0.0328 | 0.0332 | 0.0223 | 0.0144 | 0.544 | 0.49 | 0.2 | 0.0672 | 0.0154 |
| NCI-H520 | 1.09 | 0.891 | 1.05 | 1.05 | 0.793 | 0.577 | 0.503 | 0.717 | 0.303 | 0.36 | 0.199 | 0.21 | 0.198 | 0.243 | 0.225 | 0.906 | 0.948 | 0.381 | 0.383 | 0.214 |
| NCI-H596 | 0.928 | 1.01 | 1.18 | 0.98 | 1.02 | 0.754 | 0.869 | 0.879 | 0.723 | 0.637 | 1.01 | 1 | 0.508 | 0.306 | 0.275 | 0.484 | 0.458 | 0.466 | 0.528 | 0.326 |
| NCI-H647 | 1.26 | 1.27 | 1.19 | 0.709 | 0.7 | 0.518 | 0.575 | 0.401 | 0.364 | 0.24 | 0.303 | 0.261 | 0.166 | 0.111 | 0.0881 | 1.77 | 0.995 | 0.623 | 0.144 | 0.173 |
| NCI-H727 | 0.493 | 0.365 | 0.464 | 0.354 | 0.31 | 0.602 | 0.601 | 0.974 | 0.464 | 0.617 | 0.344 | 0.295 | 0.371 | 0.191 | 0.302 | 0.606 | 0.641 | 0.497 | 0.396 | 0.352 |
| NCI-H838 | 1.22 | 1.24 | 1.21 | 1.06 | 0.897 | 0.748 | 0.652 | 0.629 |  | 0.431 | 0.571 | 0.246 | 0.27 | 0.217 | 0.244 | 1.19 | 1.06 | 0.445 | 0.615 | 0.331 |
| NCI-H1355 | 0.882 | 1.03 | 0.986 | 1.01 | 1 | 0.501 | 0.458 | 0.454 | 0.299 | 0.244 | 0.769 | 0.585 | 0.567 | 0.333 | 0.32 | 1.07 | 0.692 | 0.736 | 0.561 | 0.222 |
| NCI-H1395 | 1.17 | 0.993 | 1.16 | 0.964 | 0.63 | 0.473 | 0.426 | 0.437 | 0.341 | 0.396 | 0.73 | 0.586 | 0.675 | 0.362 | 0.314 | 0.992 | 0.889 | 0.98 | 0.465 | 0.324 |
| NCI-H1437 | 1.09 | 1.1 |  | 1.03 | 0.928 | 0.353 | 0.315 |  | 0.288 | 0.273 | 1.21 | 0.899 | 0.45 | 0.191 | 0.202 | 1.24 | 1.07 | 0.711 | 0.219 | 0.239 |
| NCI-H1651 |  | 0.882 |  | 0.694 | 0.0867 | 0.322 | 0.26 |  | 0.251 | 0.132 | 0.984 | 0.557 | 0.289 | 0.247 | 0.153 | 1.17 | 0.987 | 0.584 | 0.266 | 0.0691 |
| NCI-H1666 | 0.967 | 1 |  | 0.766 | 0.397 | 0.542 | 0.551 | 0.505 | 0.548 | 0.507 | 1.06 | 1.06 | 0.963 | 0.499 | 0.369 | 0.982 | 0.961 | 0.966 | 0.208 | 0.196 |
| NCI-H1734 | 0.979 | 0.896 | 0.887 | 0.728 | 0.761 | 0.411 | 0.376 | 0.374 | 0.306 | 0.218 | 0.201 | 0.181 | 0.2 | 0.147 | 0.143 | 0.944 | 0.786 | 0.422 | 0.452 | 0.254 |
